Results on three compounds are retold here after paper PMC10907560, “Significant reduction of activity retention in the kidneys via optimized linker sequences in radiohybrid-based minigastrin analogs” (EJNMMI Research, 2024).

Data set [1] can be described thus: Lipophilicity, n-octanol/PBS distribution coefficient logD7.4. Type of data set: physicochemical. Conditions: 177Lu-labeled peptide; n-octanol/PBS (1/1), n ≥ 5. The protocol: For determination of lipophilicity, the respective ^177Lu-Labeled peptide precursor (~ 1 MBq, 10 µL in 0.04 M HCl) was added to a solution of n-octanol/PBS (1/1, v/v, 1 mL) and vigourously mixed for 3 min at room temperature (n ≥ 5). Afterwards both phases were seperated using a Biofuge 15 centrifuge (Heraus Sepatech GmbH, Osterode, Germany) at 9,000 rpm for 5 min. 200 µL aliquots of both layers were collected separately, measured in a γ-counter (Perkin Elmer, Waltham, MA, USA) and the logD7.4 value was obtained.

The target in data set [2] is T1, cholecystokinin-2 receptor (CCK-2R) (Rattus norvegicus, UniProt P30553).
T1 construct: host or cells: AR42J (rat pancreatic cancer cells)
T1 sequence (P30553 1-452): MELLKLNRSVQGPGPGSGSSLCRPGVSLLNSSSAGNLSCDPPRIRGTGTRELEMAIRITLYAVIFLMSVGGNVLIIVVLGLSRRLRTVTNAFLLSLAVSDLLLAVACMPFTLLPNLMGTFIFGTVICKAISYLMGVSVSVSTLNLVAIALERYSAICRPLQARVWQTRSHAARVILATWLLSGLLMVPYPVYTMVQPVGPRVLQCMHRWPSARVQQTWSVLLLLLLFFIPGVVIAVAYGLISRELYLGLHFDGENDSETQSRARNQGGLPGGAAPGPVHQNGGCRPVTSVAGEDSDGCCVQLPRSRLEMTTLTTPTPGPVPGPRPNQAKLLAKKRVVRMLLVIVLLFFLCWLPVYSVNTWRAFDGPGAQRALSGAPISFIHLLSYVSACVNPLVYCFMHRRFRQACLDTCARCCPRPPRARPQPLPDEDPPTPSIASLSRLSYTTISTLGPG
Description: CCK-2R affinity (apparent IC50), competitive binding on AR42J cells. Conditions: natLu-labeled peptide, 3 h, 37 °C, [177Lu]Lu-DOTA-PP-F11N (0.3 pmol) as radiolabeled reference. The method, then:
On the next day, medium was removed, cells were washed with PBS (300 µL) and fresh nutrient medium supplemented with 5% BSA (200 µL) was added. The peptide of interest (25 µL in nutrient medium) in increasing concentrations (10^−10 to 10^−4 M) in triplicate as well as [^177Lu]Lu-DOTA-PP-F11N (25 μL, 0.3 pmol) were added to the cells and the assay was incubated for 3 h at 37 °C. Subsequently, the supernatant was collected, cells were washed with PBS (300 µL) and both fractions were unified. Cell lysis was conducted by addition of NaOH (300 µL, 1 N) and incubation for at least 20 min at room temperature. The supernatant was collected, the respective wells were washed with NaOH (300 µL, 1 N) and both fractions were unified. Radioactivity of all fractions collected was quantified using a γ-counter (PerkinElmer Inc., Waltham, United States). Apparent half-maximal inhibitory concentration (IC50) was calculated via the GraphPad PRISM software (GraphPad Software Inc., La Jolla, United States).
CCK-2R positive rat pancreatic cancer cells AR42J (CLS GmbH, Eppelheim, Germany) were cultivated in monolayers in CELLSTAR® cell culture flask (Greiner Bio-One GmbH, Frickenhausen, Germany) at 37°C in a humidified atmosphere (5% CO2). Therefor, a HERAcell 150i-Incubator (Thermo Fisher Scientific Inc., Waltham, United States) was used. RPMI 1640 medium, supplemented with 5 mM L-Gln 5 mL non-essential amino acids (100×) and 10% FCS, was used for cell nutrition. Detachment of the cells for passaging was conducted with a Dulbecco’s PBS solution supplemented with 0.1% EDTA (v/v). Cell numbers were determined with a Neubauer hemocytometer (Paul Marienfeld, Lauda-Königshofen, Germany). All operations requiring sterile conditions, were accomplished using a MSC-Advantage safety workbench (Thermo Fisher Scientific Inc., Waltham, United States).
Table S1. Affinity, lipophilicity and human serum albumin binding data of the compounds evaluated. Affinity data were determined on AR42J cells (2.0 × 10^5 cells/well) and [^177Lu]Lu-DOTA-PP-F11N (0.3 pmol/well) as radiolabeled reference (3 h, 37 °C, RPMI 1640, 5 mM L-Gln, 5 mL non-essential amino acids (100×), 10% FCS + 5% BSA (v/v)).

The target of data set [3] is T2, Human serum albumin (HSA) (Homo sapiens, UniProt P02768).
T2 construct: purchased Daicel, Tokyo, Japan H13H-2433
T2 sequence (P02768 25-609): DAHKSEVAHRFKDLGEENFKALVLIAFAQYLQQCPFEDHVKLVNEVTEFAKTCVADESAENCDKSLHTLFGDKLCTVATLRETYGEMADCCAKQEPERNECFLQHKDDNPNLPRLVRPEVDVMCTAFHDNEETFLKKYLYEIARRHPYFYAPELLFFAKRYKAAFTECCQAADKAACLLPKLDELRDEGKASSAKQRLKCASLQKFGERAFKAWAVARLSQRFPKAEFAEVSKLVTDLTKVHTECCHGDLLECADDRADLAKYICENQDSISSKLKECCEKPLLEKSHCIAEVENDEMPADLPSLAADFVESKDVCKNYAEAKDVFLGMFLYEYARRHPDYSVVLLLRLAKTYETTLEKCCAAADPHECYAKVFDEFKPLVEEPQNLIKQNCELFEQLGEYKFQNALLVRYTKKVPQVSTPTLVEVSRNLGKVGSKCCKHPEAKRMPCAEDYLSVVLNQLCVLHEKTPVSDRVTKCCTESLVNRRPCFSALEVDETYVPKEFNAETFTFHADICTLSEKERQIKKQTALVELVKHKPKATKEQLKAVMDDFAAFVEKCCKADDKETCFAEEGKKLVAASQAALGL
Briefly: Human serum albumin binding via high performance affinity chromatography (HPAC). Conditions: Chiralpak HSA column, n = 1. Type of data set: in vitro ADME. The protocol:
Human serum albumin (HSA) binding was determined via high performance affinity chromatography (HPAC), according to previously published protocols. Human serum albumin interaction was calculated according to the retention time (n = 1) of our compounds on a Chiralpak HSA column in dependence of nine reference compounds with known HSA interaction.
Human serum albumin binding was determined via high performance affinity chromatography. Therefore, a Chiralpak HSA column (50 × 3 mm, 5 µm, H13H-2433, Daicel, Tokyo, Japan) was used at a constant flow rate of 0.5 ml/min at room temperature. Mobile phase A consisted of a freshly prepared aqueous solution of NH4OAc (pH = 6.9, 50 mM) and mobile phase B of isopropanol. Calibration of the column was performed daily prior to experiments, by determining the retention times of nine reference substances displaying a HSA binding from 13 to 99%. HPLC gradient for all compounds tested was 100% A (0 to 3 min), followed by 80% A (3 to 40 min). All substances tested, were dissolved in a mixture of A/B (0.5 mg/mL, 1:1, v/v). OriginPro 2016G software (Northampton, United States) was used for non-linear regression and data evaluation.

The subject of data set [4] is AR42J tumor-bearing CB17-SCID mice. Conditions: 24 h p.i.; cited from earlier work.
For data set [5], the target named is T1, cholecystokinin-2 receptor (CCK-2R). The conditions noted are these: AR42J cells; read-out: apparent IC50; cited from earlier work.

Like-named read-outs stand apart in the source and are kept apart here. Numbered stars: 1 amine (or outer) side, 2 acyl side, 3 side chain; on linkers, the order of the positions; unused ones are H or OH. Square brackets hold non-standard residues; d marks the D form. Peptide text beside a SMILES is read from it. * marks the point of attachment. X1 = CC(C)(C)[Si](F)(c1ccc(C[N+](C)(C)CC(=O)*)cc1)C(C)(C)C; DOTA = O=C(O)CN1CCN(CC(=O)O)CCN(CC(=O)*)CCN(CC(=O)O)CC1; d(γGlu) = O=C(O)[C@@H](CCC(=O)[*:2])N[*:1]; 1Nal = N[C@@H](Cc1cccc2ccccc12)C(=O)O; PEG5 = NCCOCCOCCOCCOCCOCCC(=O)O; NMeNle = CCCC[C@H](NC)C(=O)O; PEG4 = NCCOCCOCCOCCOCCC(=O)O; Nle = CCCC[C@H](N)C(=O)O; dDap = NC[C@@H](N)C(=O)O

Take `CCCC[C@@H](C(=O)N[C@@H](CC(=O)O)C(=O)N[C@@H](Cc1cccc2ccccc12)C(N)=O)N(C)C(=O)[C@H](Cc1c[nH]c2ccccc12)NC(=O)CCOCCOCCOCCOCCNC(=O)CC[C@@H](NC(=O)CCOCCOCCOCCOCCOCCOCCOCCOCCOCCOCCOCCOCCNC(=O)CC[C@@H](NC(=O)[C@@H](CNC(=O)c1cc(C(=O)O)cc([Si](F)(C(C)(C)C)C(C)(C)C)c1)NC(=O)CN1CCN(CC(=O)O)CCN(CC(=O)O)CCN(CC(=O)O)CC1)C(=O)O)C(=O)O` [[^nat/177Lu]Lu-DOTA-rhCCK-69, DOTA-D-Dap(SiFA-ipa)-D-γ-Glu-(PEG)11-B, metal not drawn]: in data set [1], the logD (commonly lipophilicity at a set pH, counting ionised and neutral species) is -2.11 ± 0.09. Moreover, in data set [2] (n = 3, listed as [^natLu]Lu-DOTA-rhCCK-69), the half-maximal inhibitory concentration (IC50) (usually the concentration needed to halve the response being measured) turned out to be 0.0421 ± 0.0017 µM. Further, the HSA binding in data set [3] came to 84.7%.
As to `CCCC[C@@H](C(=O)N[C@@H](CC(=O)O)C(=O)N[C@@H](Cc1cccc2ccccc12)C(N)=O)N(C)C(=O)[C@H](Cc1c[nH]c2ccccc12)NC(=O)CCOCCOCCOCCOCCNC(=O)CC[C@@H](NC(=O)CCOCCOCCOCCOCCOCCNC(=O)[C@@H](CNC(=O)C[N+](C)(C)Cc1ccc([Si](F)(C(C)(C)C)C(C)(C)C)cc1)NC(=O)CN1CCN(CC(=O)O)CCN(CC(=O)O)CCN(CC(=O)O)CC1)C(=O)O` [[^nat/177Lu]Lu-DOTA-rhCCK-90, DOTA-D-Dap(SiFAlin)-(PEG)4-B, metal not drawn] ({DOTA}-[dDap](X1)[PEG5][d(γGlu)][PEG4]W[NMeNle]D[1Nal]-NH2), the logD in data set [1] was -0.76 ± 0.09. Moreover, the half-inhibitory concentration (IC50) in data set [2] (n = 3) came out at 0.0099 ± 0.001 µM. In data set [3], this compound returned an HSA binding of 94.5%.
As to “(R)-DOTAGA-D-Dap(p-SiFA)-(D-γ-Glu)6-Ala-Tyr-Gly-Trp-Nle-Asp-Phe-NH2 ({(R)‑DOTAGA-dDap(p-SiFA)-d(γGlu)-d(γGlu)-d(γGlu)-d(γGlu)-d(γGlu)-d(γGlu)}-AYGW[Nle]DF-NH2; also: 177Lu complex of DOTAGA) [[^177Lu]Lu-(R)-DOTAGA-rhCCK-16]”, the “activity levels in the tumor” value in data set [4] is 18.0 ± 0.7 %ID/g. In addition, in data set [5], the IC50 is 0.0204 ± 0.0027 µM.
